According to ChEMBL document CHEMBL4765390, “Discovery of carboxyl-containing biaryl ureas as potent RORγt inverse agonists” (Eur J Med Chem, 2020):
≈ marks a conversion by molar mass, not a printed value.

Experiments:
[1] = Aqueous kinetic solubility of the compound at pH 7.4 PBS buffer at 100 uM incubated for 120 mins by LC-MS/MS analysis; format: physicochemical; conditions: read-out: Kinetic_solubility
[2] = target: T1, Nuclear receptor ROR-gamma (Homo sapiens, UniProt P51449); assay: Inverse agonist activity at human RORgammat assessed as inhibition of N-terminal biotinylated co-activator SRC1 recruitment measured after 60 mins by FRET assay
T1 sequence (P51449 whole entry): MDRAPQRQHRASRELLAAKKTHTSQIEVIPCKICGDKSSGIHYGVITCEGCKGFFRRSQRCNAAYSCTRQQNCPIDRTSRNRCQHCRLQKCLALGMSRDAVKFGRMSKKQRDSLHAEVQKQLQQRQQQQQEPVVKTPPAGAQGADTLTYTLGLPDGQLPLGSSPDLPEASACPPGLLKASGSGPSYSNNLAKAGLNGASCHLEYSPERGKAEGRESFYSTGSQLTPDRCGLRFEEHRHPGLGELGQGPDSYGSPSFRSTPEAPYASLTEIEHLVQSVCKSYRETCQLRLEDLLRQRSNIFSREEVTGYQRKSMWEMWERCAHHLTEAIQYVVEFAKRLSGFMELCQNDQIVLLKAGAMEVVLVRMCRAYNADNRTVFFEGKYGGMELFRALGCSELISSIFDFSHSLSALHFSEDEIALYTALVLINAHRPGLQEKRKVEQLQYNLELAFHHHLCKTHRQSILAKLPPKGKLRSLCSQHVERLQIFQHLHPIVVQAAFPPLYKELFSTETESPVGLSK

[3] = Half life in CD-1 mouse at 5 mg/kg, po administered as single dose measured after 24 hrs by LC-MS/MS analysis; format: ADME, organism-based; conditions: in vivo
[4] = Cmax in CD-1 mouse at 5 mg/kg, po administered as single dose measured after 24 hrs by LC-MS/MS analysis; format: ADME, organism-based; set-up: route oral, time 24 hrs, dose 5 mg/kg; conditions: in vivo
[5] = Cmax in CD-1 mouse at 1 mg/kg, iv administered as single dose measured after 24 hrs by LC-MS/MS analysis; format: ADME, organism-based; set-up: route intravenous, time 24 hrs, dose 1 mg/kg; conditions: in vivo
[6] = Clearance in CD-1 mouse at 1 mg/kg, iv administered as single dose measured after 24 hrs by LC-MS/MS analysis; format: ADME, organism-based; conditions: in vivo
[7] = Oral bioavailability in CD-1 mouse at 5 mg/kg administered as single dose measured after 24 hrs by LC-MS/MS analysis; format: ADME, organism-based; conditions: in vivo
[8] = Half life in CD-1 mouse at 1 mg/kg, iv administered as single dose measured after 24 hrs by LC-MS/MS analysis; format: ADME, organism-based; conditions: in vivo
[9] = Volume of distribution at steady state in CD-1 mouse at 1 mg/kg, iv administered as single dose measured after 24 hrs by LC-MS/MS analysis; format: ADME, organism-based; conditions: in vivo, read-out: Vdss
[10] = target: T2, Nuclear receptor ROR-alpha (Homo sapiens, UniProt P35398); assay: Inverse agonist activity at ROR-alpha (unknown origin) expressed in HEK293 cells by Gal4-luciferase reporter assay; format: cell-based
T2 sequence (P35398 whole entry): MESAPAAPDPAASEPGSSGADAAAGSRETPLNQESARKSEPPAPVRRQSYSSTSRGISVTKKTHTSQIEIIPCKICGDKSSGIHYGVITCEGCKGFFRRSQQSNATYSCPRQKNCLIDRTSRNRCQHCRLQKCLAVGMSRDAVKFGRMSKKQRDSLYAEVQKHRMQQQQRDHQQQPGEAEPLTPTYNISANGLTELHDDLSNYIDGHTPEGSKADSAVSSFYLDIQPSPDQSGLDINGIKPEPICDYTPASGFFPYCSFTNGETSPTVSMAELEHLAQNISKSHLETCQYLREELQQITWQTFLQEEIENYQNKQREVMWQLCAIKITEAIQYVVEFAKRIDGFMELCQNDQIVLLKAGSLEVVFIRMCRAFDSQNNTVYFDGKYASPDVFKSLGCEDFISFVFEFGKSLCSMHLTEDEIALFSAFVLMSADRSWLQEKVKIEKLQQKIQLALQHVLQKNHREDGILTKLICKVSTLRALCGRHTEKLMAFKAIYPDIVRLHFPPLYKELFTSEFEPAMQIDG

[11] = target: T3, Nuclear receptor ROR-beta (Homo sapiens, UniProt Q92753); assay: Inverse agonist activity at ROR-beta (unknown origin) expressed in HEK293 cells by Gal4-luciferase reporter assay; format: cell-based
T3 sequence (Q92753 whole entry): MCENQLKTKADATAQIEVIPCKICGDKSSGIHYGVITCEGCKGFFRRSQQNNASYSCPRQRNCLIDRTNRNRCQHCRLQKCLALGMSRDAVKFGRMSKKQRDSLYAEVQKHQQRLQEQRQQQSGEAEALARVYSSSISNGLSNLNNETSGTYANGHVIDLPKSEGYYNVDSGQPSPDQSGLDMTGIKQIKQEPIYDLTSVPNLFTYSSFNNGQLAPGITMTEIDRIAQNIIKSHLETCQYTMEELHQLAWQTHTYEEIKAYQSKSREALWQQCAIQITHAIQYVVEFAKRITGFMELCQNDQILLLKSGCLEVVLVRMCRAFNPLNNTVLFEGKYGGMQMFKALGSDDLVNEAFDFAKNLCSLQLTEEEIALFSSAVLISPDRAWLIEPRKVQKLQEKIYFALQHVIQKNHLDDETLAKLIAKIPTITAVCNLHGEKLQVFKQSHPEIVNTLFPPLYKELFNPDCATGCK

[12] = AUC (0 to last) in CD-1 mouse at 5 mg/kg, po administered as single dose measured after 24 hrs by LC-MS/MS analysis; format: ADME, organism-based; set-up: route oral, dose 5 mg/kg, time 24 hrs; conditions: in vivo
[13] = AUC (0 to last) in CD-1 mouse at 1 mg/kg, iv administered as single dose measured after 24 hrs by LC-MS/MS analysis; format: ADME, organism-based; set-up: route intravenous, dose 1 mg/kg, time 24 hrs; conditions: in vivo
[14] = Tmax in CD-1 mouse at 5 mg/kg, po administered as single dose measured after 24 hrs by LC-MS/MS analysis; format: ADME, organism-based; conditions: in vivo

Structure (SMILES)	IC50 [2] [nM]	further results
CCS(=O)(=O)c1ccc(CC(=O)Nc2cc(Cl)c(-c3ccccc3OC(F)(F)F)c(Cl)c2)cc1		solubility kinetic at 2 h, 100 µM [1]: 1.25 µg/mL (≈ 2.35 µM)
O=C(NCc1ccc(C(O)CO)cc1)Nc1cc(Cl)c(-c2ccccc2OC(F)(F)F)c(Cl)c1 (configuration not stated)	584	
Cc1cc(CNC(=O)Nc2cc(Cl)c(-c3ccccc3OC(F)(F)F)c(Cl)c2)ccc1CC(=O)O	995	
Cc1cc(CC(=O)O)ccc1CNC(=O)Nc1cc(Cl)c(-c2ccccc2OC(F)(F)F)c(Cl)c1	398	
CS(=O)(=O)c1ccc(CNC(=O)Nc2cc(Cl)c(-c3ccccc3OC(F)(F)F)c(Cl)c2)cc1	69	
CCS(=N)(=O)c1ccc(CNC(=O)Nc2cc(Cl)c(-c3ccccc3OC(F)(F)F)c(Cl)c2)cc1 (configuration not stated)	200	
CC(C(=O)O)c1ccc(CNC(=O)Nc2cc(Cl)c(-c3ccccc3OC(F)(F)F)c(Cl)c2)nc1 (configuration not stated)	1780	
O=C(O)Cc1ccc(CNC(=O)Nc2ccc(-c3ccccc3)cc2)cc1	> 30000	
O=C(O)Cc1ccc(CNC(=O)Nc2cc(Cl)c(-c3ccccc3OC(F)(F)F)c(Cl)c2)cc1		half-life [3]: 3.63 h; Cmax [4]: 609 ng/mL; Cmax [5]: 1550 ng/mL; clearance [6]: 13.1 mL/min/kg; bioavailability [7]: 38.1%; half-life [8]: 3.04 h; Vd [9]: 1.78 L/kg; IC50 [10]: > 10000 nM; IC50 [11]: > 10000 nM; AUC(0-t) at 24 h [12]: 2410 ng·h/mL; AUC(0-t) at 24 h [13]: 1270 ng·h/mL; solubility kinetic at 2 h, 100 µM [1]: 84 µg/mL (≈ 164 µM); Tmax [14]: 1 h
O=C(NCc1ccc(C(=O)O)cc1)Nc1cc(Cl)c(-c2ccccc2OC(F)(F)F)c(Cl)c1	1100	
O=C(NCc1ccc(C(F)C(=O)O)cc1)Nc1cc(Cl)c(-c2ccccc2OC(F)(F)F)c(Cl)c1 (configuration not stated)	124	
CNS(=O)(=O)c1ccc(CNC(=O)Nc2cc(Cl)c(-c3ccccc3OC(F)(F)F)c(Cl)c2)cc1	99.8	
O=C(O)CCc1ccc(CNC(=O)Nc2cc(Cl)c(-c3ccccc3OC(F)(F)F)c(Cl)c2)cc1	841	
NS(=O)(=O)c1ccc(CNC(=O)Nc2cc(Cl)c(-c3ccccc3OC(F)(F)F)c(Cl)c2)cc1	276	
CC(=O)NS(=O)(=O)c1ccc(CNC(=O)Nc2cc(Cl)c(-c3ccccc3OC(F)(F)F)c(Cl)c2)cc1	138	
CCS(=O)(=O)c1ccc(CCNc2cc(Cl)c(-c3ccccc3OC(F)(F)F)c(Cl)c2)cc1	21.6	

The next lines start with results.

IC50 [2] [nM]	Structure (SMILES)	further results
99	CCS(=O)(=O)c1ccc(OCC(=O)Nc2cc(Cl)c(-c3ccccc3OC(F)(F)F)c(Cl)c2)cc1	
996	O=C(O)Cc1ccc(CNC(=O)Nc2cc(F)c(-c3ccccc3OC(F)(F)F)c(F)c2)nc1	
112	CCS(=O)(=O)c1ccc(CNC(=O)c2cc(Cl)c(-c3ccccc3OC(F)(F)F)c(Cl)c2)cc1	
4410	CCS(=O)(=O)c1ccc(COCc2cc(Cl)c(-c3ccccc3OC(F)(F)F)c(Cl)c2)cc1	
345	Cc1cc(NC(=O)NCc2ccc(CC(=O)O)cn2)cc(C)c1-c1ccccc1OC(F)F	
278	O=C(NCc1ccc(C(O)C(=O)O)cc1)Nc1cc(Cl)c(-c2ccccc2OC(F)(F)F)c(Cl)c1 (configuration not stated)	
334	CC(C(=O)O)c1ccc(CNC(=O)Nc2cc(Cl)c(-c3ccccc3OC(F)(F)F)c(C#N)c2)cc1 (configuration not stated)	
541	CC(C(=O)O)c1ccc(CNC(=O)Nc2cc(Cl)c(-c3ccccc3OC(F)(F)F)c(Cl)c2)cc1 (configuration not stated)	
426	CCS(=O)(=O)c1ccc(CCOc2cc(Cl)c(-c3ccccc3OC(F)(F)F)c(Cl)c2)cc1	
